From patent US11399540B2, “Molecules having pesticidal utility, and intermediates, compositions, and processes, related thereto” (CORTEVA AGRISCIENCE LLC, priority 2017, dated 2022)

What was measured:
[1] = system: Cabbage Looper (Trichoplusia ni, TRIPNI); assay: Bioassay on Cabbage Looper (CL), 128-well diet tray assay; type: in vivo; details: 168 h, 50 μg/cm^2 of test molecule on artificial diet, second instar larvae, 25° C., five to seven days, average of eight wells, read-out: CL % Control (or Mortality) rating
Description: (§1) Certain molecules disclosed in this document were tested against BAW and CL using procedures described in the following examples. In the reporting of the results, the “BAW & CL Rating Table” was used (See Table Section).
Bioassays on CL were conducted using a 128-well diet tray assay. One to five second instar CL larvae were placed in each well (3 mL) of the diet tray that had been previously filled with 1 mL of artificial diet to which 50 μg/cm^2 of the test molecule (dissolved in 50 μL of 90:10 acetone-water mixture) had been applied (to each of eight wells) and then allowed to dry. Trays were covered with a clear self-adhesive cover, vented to allow gas exchange, and held at 25° C., 14:10 light-dark for five to seven days. Percent mortality was recorded for the larvae in each well; activity in the eight wells was then averaged. The results are indicated in the table entitled “Table ABC: Biological Results” (See Table Section).

[2] = system: Beet Armyworm (Spodoptera exigua, LAPHEG); assay: Bioassay on Beet Armyworm (BAW), 128-well diet tray assay; type: in vivo; details: 168 h, 50 μg/cm^2 of test molecule on artificial diet, second instar larvae, 25° C., five to seven days, average of eight wells, read-out: BAW % Control (or Mortality) rating
Description: as §1
Bioassays on BAW were conducted using a 128-well diet tray assay. One to five second instar BAW larvae were placed in each well (3 mL) of the diet tray that had been previously filled with 1 mL of artificial diet to which 50 μg/cm^2 of the test molecule (dissolved in 50 μL of 90:10 acetone-water mixture) had been applied (to each of eight wells) and then allowed to dry. Trays were covered with a clear self-adhesive cover, vented to allow gas exchange, and held at 25° C., 14:10 light-dark for five to seven days. Percent mortality was recorded for the larvae in each well; activity in the eight wells was then averaged. The results are indicated in the table entitled “Table ABC: Biological Results” (See Table Section).

| Structure (SMILES) | mortality at 50 µg/cm2 [1] [%] | mortality at 50 µg/cm2 [2] [%] |
| --- | --- | --- |
| Cc1ccc(C(C)C)c(N2C(=O)CS/C2=N\C(=O)NCOc2ccc(-c3ncn(-c4ccc(OC(F)(F)F)cc4)n3)cc2)c1 [Compound F1, (Z)-1-(3-(2-isopropyl-5-methylphenyl)-4-oxothiazolidin-2-ylidene)-3-((4-(1-(4-(trifluoromethoxy)phenyl)-1H-1,2,4-triazol-3-yl)phenoxy)methyl)urea] | 50 to 100 | 50 to 100 |
| Cc1ccc(C(C)C)c(N2C(=O)CS/C2=N\C(=O)NC(C)Oc2ccc(-c3ncn(-c4ccc(OC(F)(F)F)cc4)n3)cc2)c1 (stereo not drawn) [Compound F24, (Z)-1-(3-(2-Isopropyl-5-methylphenyl)-4-oxothiazolidin-2-ylidene)-3-(1-(4-(1-(4-(trifluoromethoxy)phenyl)-1H-1,2,4-triazol-3-yl)phenoxy)ethyl)urea] | 50 to 100 | 50 to 100 |
| Cc1ccc(F)c(N2C(=O)CS/C2=N\C(=O)NCOc2ccc(-c3ncn(-c4ccc(OC(F)(F)F)cc4)n3)cc2)c1 [Compound F29, (Z)-1-(3-(2-Fluoro-5-methylphenyl)-4-oxothiazolidin-2-ylidene)-3-((4-(1-(4-(trifluoromethoxy)phenyl)-1H-1,2,4-triazol-3-yl)phenoxy)methyl)urea] | 50 to 100 | 50 to 100 |
| COc1ccc(CC(F)(F)F)c(N2C(=O)CS/C2=N\C(=O)NCOc2ccc(-c3ncn(-c4ccc(OC(F)(F)F)cc4)n3)cc2)c1 [Compound F2, (Z)-1-(3-(5-Methoxy-2-(2,2,2-trifluoroethyl)phenyl)-4-oxothiazolidin-2-ylidene)-3-((4-(1-(4-(trifluoromethoxy)phenyl)-1H-1,2,4-triazol-3-yl)phenoxy)methyl)urea] | 50 to 100 | 50 to 100 |
| Cc1ccc(OCC(F)(F)F)c(N2C(=O)CS/C2=N\C(=O)NCOc2ccc(-c3ncn(-c4ccc(OC(F)(F)F)cc4)n3)cc2)c1 [Compound F23, (Z)-1-(3-(5-Methyl-2-(2,2,2-trifluoroethoxy)phenyl)-4-oxothiazolidin-2-ylidene)-3-((4-(1-(4-(trifluoromethoxy)phenyl)-1H-1,2,4-triazol-3-yl)phenoxy)methyl)urea] | 50 to 100 | 50 to 100 |
| CCOc1ccccc1N1C(=O)CS/C1=N\C(=O)NCOc1ccc(-c2ncn(-c3ccc(OC(F)(F)F)cc3)n2)cc1 [Compound F25, (Z)-1-(3-(2-Ethoxyphenyl)-4-oxothiazolidin-2-ylidene)-3-((4-(1-(4-(trifluoromethoxy)phenyl)-1H-1,2,4-triazol-3-yl)phenoxy)methyl)urea] | 50 to 100 | 50 to 100 |
| COC(=O)c1ccc(N2C(=O)CS/C2=N\C(=O)NCOc2ccc(-c3ncn(-c4ccc(OC(F)(F)F)cc4)n3)cc2)c(C)c1 [Compound F26, Methyl (Z)-3-methyl-4-(4-oxo-2-((((4-(1-(4-(trifluoromethoxy)phenyl)-1H-1,2,4-triazol-3-yl)phenoxy)methyl)carbamoyl)imino)thiazolidin-3-yl)benzoate] | 50 to 100 | 0 |
| CCc1cccc(C)c1N1C(=O)CS/C1=N\C(=O)NCOc1ccc(-c2ncn(-c3ccc(OC(F)(F)F)cc3)n2)cc1 [Compound F30, (Z)-1-(3-(2-Ethyl-6-methylphenyl)-4-oxothiazolidin-2-ylidene)-3-((4-(1-(4-(trifluoromethoxy)phenyl)-1H-1,2,4-triazol-3-yl)phenoxy)methyl)urea] | 50 to 100 | 50 to 100 |
| COc1ccc(N2C(=O)CS/C2=N\C(=O)NCOc2ccc(-c3ncn(-c4ccc(OC(F)(F)F)cc4)n3)cc2)c(C)c1 [Compound F32, (Z)-1-(3-(4-Methoxy-2-methylphenyl)-4-oxothiazolidin-2-ylidene)-3-((4-(1-(4-(trifluoromethoxy)phenyl)-1H-1,2,4-triazol-3-yl)phenoxy)methyl)urea] | 50 to 100 | 50 to 100 |
| CCCCc1ccccc1N1C(=O)CS/C1=N\C(=O)NCOc1ccc(-c2ncn(-c3ccc(OC(F)(F)F)cc3)n2)cc1 [Compound F28, (Z)-1-(3-(2-Butylphenyl)-4-oxothiazolidin-2-ylidene)-3-((4-(1-(4-(trifluoromethoxy)phenyl)-1H-1,2,4-triazol-3-yl)phenoxy)methyl)urea] | 0 to 50 | 0 |
| CSC(C)c1ccccc1N1C(=O)CS/C1=N\C(=O)NCOc1ccc(-c2ncn(-c3ccc(OC(F)(F)F)cc3)n2)cc1 (stereo not drawn) [Compound F31, (Z)-1-(3-(2-(1-(methylthio)ethyl)phenyl)-4-oxothiazolidin-2-ylidene)-3-((4-(1-(4-(trifluoromethoxy)phenyl)-1H-1,2,4-triazol-3-yl)phenoxy)methyl)urea] | 50 to 100 | 50 to 100 |
| O=C(/N=C1\SCC(=O)N1c1cccc2c1CCCC2)NCOc1ccc(-c2ncn(-c3ccc(OC(F)(F)F)cc3)n2)cc1 [Compound F27, (Z)-1-(4-Oxo-3-(5,6,7,8-tetrahydronaphthalen-1-yl)thiazolidin-2-ylidene)-3-((4-(1-(4-(trifluoromethoxy)phenyl)-1H-1,2,4-triazol-3-yl)phenoxy)methyl)urea] | 50 to 100 | 50 to 100 |
